Test results: patent publication US8871751B2, “Compositions and methods relating to nuclear hormone and steroid hormone receptors including inhibitors of estrogen receptor alpha-mediated gene expression and inhibition of breast cancer” (The Board of Trustees of the University of Illinois, priority 2008, dated 2014)

Assays:
[1] = target: T1, human androgen receptor (AR) binding to flARE (Homo sapiens, UniProt P10275); test: FAMA: inhibition of AR binding to flcARE; settings: binding to HRE, 5 concentrations 0.5-10 μM, sequential method
T1 construct: AR assays contained 1 nM flcARE and 50 nM full-length wild-type AR; FLAG; made in house
T1 sequence (P10275 1-920): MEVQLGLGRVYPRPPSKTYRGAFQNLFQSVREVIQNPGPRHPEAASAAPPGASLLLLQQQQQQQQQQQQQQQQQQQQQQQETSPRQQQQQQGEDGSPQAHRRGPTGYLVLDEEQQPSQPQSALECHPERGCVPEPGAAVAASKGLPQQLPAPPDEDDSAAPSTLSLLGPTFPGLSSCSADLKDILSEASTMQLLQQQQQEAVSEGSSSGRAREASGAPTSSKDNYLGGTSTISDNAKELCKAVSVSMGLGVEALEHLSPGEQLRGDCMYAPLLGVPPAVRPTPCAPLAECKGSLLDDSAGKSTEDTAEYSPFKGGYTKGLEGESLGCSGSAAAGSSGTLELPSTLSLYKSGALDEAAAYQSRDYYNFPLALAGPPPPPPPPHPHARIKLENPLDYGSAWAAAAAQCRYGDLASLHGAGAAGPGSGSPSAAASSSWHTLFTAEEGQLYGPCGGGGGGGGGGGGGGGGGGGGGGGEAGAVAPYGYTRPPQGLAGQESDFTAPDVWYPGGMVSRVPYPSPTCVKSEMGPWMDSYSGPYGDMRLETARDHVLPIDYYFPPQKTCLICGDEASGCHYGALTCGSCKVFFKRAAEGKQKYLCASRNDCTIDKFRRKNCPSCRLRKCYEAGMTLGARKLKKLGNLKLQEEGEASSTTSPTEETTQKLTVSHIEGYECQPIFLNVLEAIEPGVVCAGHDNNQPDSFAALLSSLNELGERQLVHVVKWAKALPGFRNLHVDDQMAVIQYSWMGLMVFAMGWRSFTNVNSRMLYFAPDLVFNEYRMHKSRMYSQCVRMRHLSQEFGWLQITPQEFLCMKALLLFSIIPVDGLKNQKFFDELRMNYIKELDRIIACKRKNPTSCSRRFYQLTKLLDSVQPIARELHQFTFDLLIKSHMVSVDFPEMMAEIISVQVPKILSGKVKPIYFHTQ
Method: (§1) Dose response curves for selected compounds were carried out as described for the HTS screen except that each well contained the indicated concentration of test compound. PR assays were carried out in the same buffer used for ERα assays and contained 1 nM flcPRE and 11 nM PR-B and 100 nM progesterone. The buffer used for AR was similar but also contained 5 μM ZnCl, 5 mM NaF, 0.6 μM CHAPS and 100 nM dihydrotestosterone. AR assays contained 1 nM flcARE and 50 nM full-length wild-type AR.
(§2) Specificity was evaluated in dose-response studies by quantitative FAMA using purified full-length human PR binding to a fluorescein-labeled progesterone/glucocorticoid response element (flPRE) and full-length human androgen receptor (AR) binding to a fluorescein-labeled androgen response element (flARE).

[2] = target: T2, human ERα binding to flcERE (Homo sapiens, UniProt P03372); test: FAMA: inhibition of ERα binding to flcERE; settings: FAMA, binding to HRE, 5 concentrations 0.5-10 μM, sequential method; read-out: IC50 ERα
T2 construct: Full-length FLAG-tagged human ERα was expressed and purified as described previously (27); FLAG; made in house
T2 sequence (P03372 1-595): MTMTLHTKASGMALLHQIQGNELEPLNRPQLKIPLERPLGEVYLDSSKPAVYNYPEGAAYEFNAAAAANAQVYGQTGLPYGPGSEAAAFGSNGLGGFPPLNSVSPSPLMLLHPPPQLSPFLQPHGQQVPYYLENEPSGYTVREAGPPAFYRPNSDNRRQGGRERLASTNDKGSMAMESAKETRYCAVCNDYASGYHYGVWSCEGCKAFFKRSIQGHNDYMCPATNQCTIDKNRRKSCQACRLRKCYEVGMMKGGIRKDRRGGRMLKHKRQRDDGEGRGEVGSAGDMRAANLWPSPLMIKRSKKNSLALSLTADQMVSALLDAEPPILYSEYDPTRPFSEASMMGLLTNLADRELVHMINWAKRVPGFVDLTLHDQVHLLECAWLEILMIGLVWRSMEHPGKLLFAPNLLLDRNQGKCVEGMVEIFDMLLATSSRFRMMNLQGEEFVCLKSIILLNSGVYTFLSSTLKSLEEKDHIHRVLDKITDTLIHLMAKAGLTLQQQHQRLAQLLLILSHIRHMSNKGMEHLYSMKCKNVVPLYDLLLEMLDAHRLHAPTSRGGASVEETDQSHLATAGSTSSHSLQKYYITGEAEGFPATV
Method: Prior to screening, the 10 mM library stocks were diluted to produce replica libraries in 384-well plates containing each small molecule at 0.25 mM (in DMSO). In our initial studies we were concerned that forming the flcERE-ERα complex first and then adding the candidate small molecule inhibitors would miss small molecules that bind at the interface. We therefore screened using the “sequential” method in which the candidate small molecules were first incubated with ERα and followed by addition of the flcERE. The assay for binding of ERα to the flcERE is a modification of our earlier assay (27). Assays were carried out at room temperature in black wall 384-well microplates (Greiner/Bio-One) in a total volume of 10 μl in buffer containing 20 mM Tris pH 7.5, 10% glycerol, 0.2 mM EDTA, 2 mM DTT, 100 mM KCl, 0.5 ng/μl poly dl:dC, […] bovine serum albumin and 100 nM 17β-estradiol (E2). For high throughput screening, a master mix without ERα and probe was prepared at 4° C. The master mix was divided into 2 parts. ERα was added to one part to 5 nM in the final assays. 7 μl of the ERα-containing mix was then dispensed into each well of a 384-well plate on ice. 100 nl of the compounds being tested was then added using a pin-transporter (V & P Scientific, Inc, CA) to a final concentration of 2.5 μM. The samples were mixed using the pin-transporter and sedimented by centrifugation for 2 min. at 4° C. and incubated on ice for 10 min. The flcERE probe was added to the other aliquot of the mix to 1 nM. 3 μl of the mix containing the flcERE probe was added to each well containing ERα and the test compound. The samples were mixed using the pin-transporter, the plates were briefly centrifuged and incubated at room temperature for 10 min. and fluorescence anisotropy (FA) was measured using a BMG PheraStar (BMG Labtech) microplate reader (module: 485 520) with excitation at 485λ and emission at 520λ. To identify small molecules that were highly fluorescent, or quench fluorescence, fluorescence intensity was also measured.
as §1

[3] = target: T3, human PR-B binding to flPRE (Homo sapiens, UniProt P06401); test: FAMA: inhibition of PR binding to flcPRE; settings: binding to HRE, 5 concentrations 0.5-10 μM, sequential method
T3 construct: FLAG; made in house
T3 sequence (P06401 1-933): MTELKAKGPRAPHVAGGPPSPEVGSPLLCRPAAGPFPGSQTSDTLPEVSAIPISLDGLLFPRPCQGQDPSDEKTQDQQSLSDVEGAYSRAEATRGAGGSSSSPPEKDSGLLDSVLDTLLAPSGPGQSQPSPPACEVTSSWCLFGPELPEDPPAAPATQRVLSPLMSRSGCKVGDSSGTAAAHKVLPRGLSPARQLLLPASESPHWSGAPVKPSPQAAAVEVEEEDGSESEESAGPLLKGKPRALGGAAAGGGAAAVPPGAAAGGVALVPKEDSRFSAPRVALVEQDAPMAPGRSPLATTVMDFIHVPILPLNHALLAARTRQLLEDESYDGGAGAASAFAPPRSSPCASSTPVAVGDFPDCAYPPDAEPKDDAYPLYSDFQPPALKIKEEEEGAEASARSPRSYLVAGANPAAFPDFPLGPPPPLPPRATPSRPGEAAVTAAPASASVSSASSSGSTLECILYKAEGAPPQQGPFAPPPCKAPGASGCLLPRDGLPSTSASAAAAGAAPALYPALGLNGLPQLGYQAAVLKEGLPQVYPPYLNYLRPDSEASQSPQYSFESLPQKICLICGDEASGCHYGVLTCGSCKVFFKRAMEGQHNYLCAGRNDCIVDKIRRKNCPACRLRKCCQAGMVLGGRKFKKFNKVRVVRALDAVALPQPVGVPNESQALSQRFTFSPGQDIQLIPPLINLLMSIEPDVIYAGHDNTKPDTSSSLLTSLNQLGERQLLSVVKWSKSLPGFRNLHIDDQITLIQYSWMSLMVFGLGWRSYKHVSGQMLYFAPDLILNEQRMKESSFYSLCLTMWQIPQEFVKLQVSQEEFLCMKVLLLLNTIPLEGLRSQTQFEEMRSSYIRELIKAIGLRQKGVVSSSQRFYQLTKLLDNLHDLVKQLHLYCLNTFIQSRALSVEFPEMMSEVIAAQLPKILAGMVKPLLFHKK
Method: as §1, §2

ERα = target: T4, ERα (Homo sapiens, UniProt P03372); test: (ERE)3-luciferase reporter gene assay in T47D-KBluc cells; type: cell-based; design: Using a stably transfected breast cancer cell line that expresses endogenous ERα; endogenous in cells; host or cells: T47D-KBluc
T4 sequence (P03372 1-595): T2 sequence (P03372 1-595)
Method: The T47D-KBluc cells stably express an (ERE)3-luciferase reporter gene (38). […] Four days before E2 induction, the cells were switched to the above medium, with 10% 2× charcoal-dextran-treated calf serum instead of FBS. 200,000 cells/well were transferred to each well of a 24-well plate. After 24 h the indicated concentrations of the test compounds were added in DMSO and E2 was added to 20 pM. After 24 h cells were washed once in PBS, and 150 μl 1× Passive Lysis Buffer (Promega, Madison Wis.) was used to lyse the cells. Luciferase activity was determined using firefly luciferase reagents from Promega (Madison, Wis.).
Reporter Gene Assays. […] AR was assayed in stably transfected HeLa cells and GR was assayed in stably transfected T47D cells maintained as described above. Four days before each experiment the cells were switched to medium containing CD-treated serum as described above. The HeLaAR cells were plated at 100,000 cells/well and the T47D/A1-2 and T47D-KBluc cells were plated at 200,000 cells/well in 1 ml of their respective media in 24-well plates. After 24 hours the indicated concentrations of E2, dihydrotestosterone (DHT) or dexamethasone (Dex) and DMSO vehicle, with or without TPSF, were added to each well. After 24 hours, the cells were washed once in phosphate buffered saline and lysed using 100 μl of 1× Passive Lysis Buffer (Promega, Madison Wis.). Luciferase activity was determined using BrightGlo firefly luciferase reagent from Promega (Madison, Wis.).

Compound: Nc1c(S(=O)(=O)O)cc(Nc2ccc(S(=O)(=O)O)c(Nc3nc(Cl)nc(Cl)n3)c2)c2c1C(=O)c1ccccc1C2=O [Compound 9545]
- IC50 [1]: 3 µM
- IC50 [2]: 0.7 µM
- IC50 [3]: 3.8 µM

Compound: CCN(CC)CCOc1ccc(Cl)cc1Cc1ccccc1 [Compound 9548]
- IC50 [1]: 4 µM
- IC50 [2]: 1 µM
- IC50 [3]: 5 µM

Compound: CCCCCN(CCCCC)CCC(O)c1cccc2ccccc12 (centres unmarked) [Compound 9671]
- IC50 [1]: > 10 µM
- IC50 [2]: > 10 µM
- IC50 [3]: > 10 µM

Compound: O=C(Nc1cc[c]([Sb](=[O])([OH])[OH])cc1)c1ccccc1 [Compound 15596]
- IC50 [1]: > 10 µM
- IC50 [2]: 5 µM
- IC50 [3]: > 10 µM

Compound: [Cu].c1ccc2c(c1)C1=NC2=NC2=NC(=NC3=NC(=NC4=NC(=N1)c1ccccc14)c1ccccc13)c1ccccc12 [Compound 43628]
- IC50 [1]: > 10 µM
- IC50 [2]: > 10 µM
- IC50 [3]: > 10 µM

Compound: O=C1NC(=S)NC(=O)C1=Cc1cccc2cc3ccccc3cc12 [Compound 90737]
- IC50 [1]: > 10 µM
- IC50 [2]: 10 µM
- IC50 [3]: > 10 µM

Compound: CC1=NNC(=S)NCCCN2CCN(CCCNC(=S)NN=C(C)C=NNC(=S)NCCCN3CCN(CCCNC(=S)NN=C1)CC3)CC2 [Compound 91767]
- IC50 [1]: > 10 µM
- IC50 [2]: 8 µM
- IC50 [3]: > 10 µM

Compound: Cn1c(=S)c2[nH]c(SCCCc3ccccc3)nc2n(C)c1=O [Compound 99676]
- potency as ERα inhibitor relative to TPSF (less potent) (ERα): ~13 fold
- IC50 (ERα; T47D (ERE)3-Luc cells, 24 h, FIG. 13, E2 concentration for 99676 not stated, read-out: IC50 for inhibition of ERα-mediated gene expression): 9 µM

Compound: O=C(O)c1cccc(N=Nc2c(S(=O)(=O)O)ccc3c2C(=O)c2ccccc2C3=O)c1O [Compound 125908]
- IC50 [1]: > 10 µM
- IC50 [2]: 3.8 µM
- IC50 [3]: > 10 µM

Compound: N#CC(C#N)=CNCCN1CCN(C=C(C#N)C#N)CC1 [Compound 343040]
- IC50 [1]: > 10 µM
- IC50 [2]: > 10 µM
- IC50 [3]: > 10 µM

Compound: O=C(O)c1nn(-c2ccc(Cl)cc2)c2c1C(=O)c1ccccc1C2=O [Compound 360494]
- IC50 [1]: > 10 µM
- IC50 [2]: > 10 µM
- IC50 [3]: > 10 µM

Compound: CN1CCc2[nH]nc(-c3n[nH]c4c3CN(C)CC4)c2C1 [Compound 371847]
- IC50 [1]: > 10 µM
- IC50 [2]: > 10 µM
- IC50 [3]: > 10 µM
